Assay results taken from paper PMC6704344, “The Preclinical Pharmacological Study of a Novel Long-Acting Local Anesthetic, a Fixed-Dose Combination of QX-OH/Levobupivacaine, in Rats” (Frontiers in Pharmacology, 2019).
Blank lines part the entries; values can stand above or below the compound they belong to.

Assays:
[1] = Drug concentration and pharmacokinetics in muscle near the injection site after sciatic nerve block in rats; type: in vivo, rat
Description: (§1) In brief, rats were anesthetized by inhaling 1%–2% isoflurane mixed with oxygen through an inhouse-made mask. Then, the rats were placed at right lateral position and inserted vertically using a 23-gauge injector at the middle of the line from the greater trochanter to ischial tuberosity ([Binshtok et al., 2007]; [Zhang et al., 2017b]). Once the bone has been contacted, 200 μl drug was injected.
(§2) On the basis of previous pharmacodynamic studies, nine sampling points were used for determining drug concentration in muscle and sciatic nerve for QX-OH and LL-1: 0.5, 1, 2, 3, 4, 5, 6, 7, and 8 h; four sampling points for Levo-Bupi: 0.5, 1, 2, and 3 h. Due to the destructive sampling, five male rats were sacrificed at each time point for collecting muscle and sciatic nerve nearby the injection site. Then all samples were weighed and frozen at -80°C.
(§3) According to previous study ([Zhang et al., 2017a]), plasma samples were deproteinized by acetonitrile solution with ropivacaine hydrochloride (internal standard, IS). The mixture was centrifuged for 10 min at 28,621 × g in 4°C after fully vortexed. The supernatant was diluted with ultrapure water (50:50, v/v). Muscle and sciatic nerve samples were homogenized by gentleMACS™ Dissociator (Miltenyi Biotec, Germany) and tissue grinder (model SCIENTZ-48, Ningbo, China), respectively. Tissue homogenate was mixed with IS solution by vortex and then centrifuged for 10 min at 28,621 × g. Then, the supernatant was diluted with ultrapure water at equal volume ratio. LC-MS/MS analysis system consist of Agilent 6460 triple quadrupole mass spectrometer and electrospray ionization source (Agilent Technologies, CA, USA). Chromatographic separation was adopted by Agilent Extend C18 column (100 mm × 3 mm, 3.5 μm) at 35°C with isocratic elution containing 0.05% formic acid and acetonitrile at the volume ratio of 78:22 at a flow rate of 0.3 ml/min. Mass spectrometry conditions were in a positive ionization mode: the sheath gas flow rate, 11.0 L/min; sheath gas heater temperature, 300°C; nebulizer pressure, 45 psi; capillary voltage, 3,500 V. MassHunter software was used to analyze data (B.04.00 Build 4.0.479.0, Agilent Technologies, USA).
(§4) The parameters of pharmacokinetics were analyzed by DAS® (Drug and Statistics, version 3.2.1, China) using noncompartmental model. In this study, the following pharmacokinetic parameters were calculated: the value of maximum concentration (Cmax) and the time to acquire (Tmax); the elimination half-life (t1/2); area under curve (AUC) from zero to the last time point (AUC0–last) and from zero to infinity (AUC0–∞); clearance (CL/F), and volume of distribution (Vd/F).

[2] = test system: HT22 cells; experiment: Cellular drug uptake assay; type: cell-based, mouse; settings: LL-1 vs 10 mM Levo-Bupi alone, 10 min incubation, n = 10, p = 0.067
Description: HT22 cell line, a sub-line derived from HT4 cells that were originally immortalized from primary mouse hippocampal neuron, were a generous gift from Dr. Huang (West China Second University Hospital, Sichuan University, China). HT22 cells were cultured in DMEM with high glucose (HyClone, Utah, USA) supplemented with 10% fetal bovine serum (Gibco, New York, USA) and 1% penicillin and streptomycin (HyClone, Utah, USA) in a humidified incubator with 5% CO2 and 95% air at 37°C.
According to previous study ([Brenneis et al., 2014]), cells were plated on 35 mm 6-well dishes (2.5 × 10^5 per well). When cells reached confluence at 70%–80%, the medium was removed, and plates washed with PBS (NaCl, 137.0 mmol/L; KCl, 2.7 mmol/L; KH2PO4, 1.5 mmol/L and Na2HPO4·12H2O, 8.0 mmol/L; pH = 7.4). Thirty wells were divided to incubate with LL-1, 35 mM QX-OH and 10 mM Levo-Bupi for 10 min, and then washed four times with PBS. Cells were translated to polypropylene tube. The cell suspensions were centrifuged at 72 × g and the supernatants were removed by pipette. All samples were frozen at -80°C before testing. Samples were homogenized with 100 µL of saline using a tissue grinder. After mixing 50 μl homogenate, 50 μl acetonitrile, and 10 μl IS, then the mixture was centrifuged for 10 min at 28,621 × g, and the supernatant was injected for analysis.

[3] = set-up: method as in Corvetto et al., 2012; settings: transversus abdominis plane block; ref Corvetto et al., 2012; cited from earlier work
[4] = test system: frog sciatic nerve fibers; experiment: Compound action potentials (CAPs) from frog sciatic nerve fibers; settings: LL-1, 35 mM QX-OH, 10 mM Levo-Bupi
Text: According to previous published researches ([Matsushita et al., 2013]; [Ohtsubo et al., 2015]). Nine of frogs were decapitated and then pithed. Then, the sciatic nerve was dissected from the lumbar plexus to the knee. The two ends of isolated sciatic nerves were carefully tied to the wires by threads and placed in Ringer solution (NaCl, 115.5 mmol/L; KCl, 2.0 mmol/L; CaCl2, 1.8 mmol/L; Na2HPO4, 1.3 mmol/L and NaH2PO4, 0.7 mmol/L; pH = 7.4).
The compound action potentials (CAPs) from frog sciatic nerve fibers was recorded by the biological function experiment system (BL-420F, Chengdu Techman Software, China). All practices were carried out at room temperature. The sciatic nerve was loosely placed in three platinum wires and then CAPs were recorded in air using a preamplifier. In this system, two of the platinum wires were used to record CAPs, and the other one was for stimulation. The parameters of stimulation were set as follows: intensity, 3 V; frequency, 1 Hz; rectangular pulses, 0.1 ms. The procedure should be performed quickly in order to avoid the nerve dry. The time of measurement should be less than 2 min. […] In this study, we compared the amplitude of CAPs after using drugs with baseline to present the degree of inhibition from frog sciatic nerve, and which was analyzed using the following equation: CAPs amplitude (%) = CAPs measurement/CAPs baseline × 100%.

[5] = Plasma pharmacokinetics after sciatic nerve block in rats; type: in vivo, rat; settings: for Tmax / AUC(0-inf) / AUC(0-t) / Cmax / Vd/F / half-life / CL/F: plasma
Text: as §1, with “2017b]).” for “2017b]). Once the bone has been contacted, 200 μl drug was injected.”
According to the China Food and Drug Administration guidance for preclinical pharmacokinetic study, there should be more than three sampling points adjacent to the time to reach the maximum concentration. […] Thus, to obtain an accurate value of the maximum concentration of Levo-Bupi, we added another time point at 0.33 h. […] Blood samples were maintained in heparinized polypropylene tube separately and then centrifuged at 877 × g for 10 min to gain plasma within 1 h. All the samples were kept at -80°C.
as §3, §4

[6] = Drug concentration and pharmacokinetics in sciatic nerve after sciatic nerve block in rats; type: in vivo, rat
Description: as §1, §2, §3, §4

[7] = test system: RAW, N1E and CHO cells; settings: cited from earlier work
[8] = set-up: method as in Yu et al., 2002; settings: subcutaneous administration; ref Yu et al., 2002; cited from earlier work
[9] = male, rat, muscle near the injection site, muscle, given as LL-1, sciatic nerve block, n = 5 per time point, mean ± SEM
[10] = muscle, given as LL-1, sciatic nerve block, n = 5 per time point, mean ± SEM
[11] = both sexes, rat, 200 μl, Levobupivacaine alone (single drug), sciatic nerve block, mean ± SEM
[12] = both sexes, rat, given as LL-1, sciatic nerve block, n = 10, mean ± SEM
[13] = male, rat, sciatic nerve, given as LL-1, sciatic nerve block, n = 5 per time point, mean ± SEM
[14] = sciatic nerve, given as LL-1, sciatic nerve block, n = 5 per time point, mean ± SEM

- increase of concentration in muscle, LL-1 vs single drug ([1]; at the same time points): 2 to 15 times
- Tmax ([1]; male, rat, muscle near the injection site, muscle, given as LL-1, sciatic nerve block, n = 5 per time point): 0.5 h
- Cmax [1, 9]: 256000 ± 28500 ng/g
- Vd/F [1, 9]: 3.01 ± 1.21 L
- half-life [1, 9]: 1.38 ± 0.6 h
- AUC0–t [1, 10]: 417.58 ± 43.46 µg·h/g
- AUC0–∞ [1, 10]: 417.86 ± 43.49 µg·h/g
- CL/F [1, 10]: 1.59 ± 0.17 L/h
- cellular uptake of Levo-Bupi [2]: had no difference
- change of Tmax in plasma in combination with QX-OH vs alone ([5]; LL-1 vs Levo-Bupi alone, sciatic nerve block): increased by four times
- Tmax ([5]; Sprague-Dawley, 200 μl, Levo-Bupi as a single drug, rat sciatic nerve block, preliminary experiment, read-out: time to maximum concentration): 0.5 h
- AUC(0-inf) [5, 11]: 509 ± 31.5 ng·h/mL
- AUC(0-t) [5, 11]: 471 ± 23.3 ng·h/mL
- Cmax [5, 11]: 142 ± 13 ng/mL
- Vd/F [5, 11]: 4.81 ± 0.5 L
- half-life [5, 11]: 2.61 ± 0.31 h
- Tmax ([5]; both sexes, rat, 200 μl, Levobupivacaine alone (single drug), sciatic nerve block, mean ± SEM, read-out: Tmax): 1.07 ± 0.16 h
- Cmax ([5]; both sexes, rat, given as LL-1 (35 mM QX-OH/10 mM Levo-Bupi), 200 μl, sciatic nerve block, n = 10, mean ± SEM): 114 ± 10.2 ng/mL
- AUC(0-inf) [5, 12]: 819 ± 78.8 ng·h/mL
- AUC(0-t) [5, 12]: 651 ± 47.4 ng·h/mL
- Vd/F [5, 12]: 3.81 ± 0.7 L
- half-life [5, 12]: 4.89 ± 1.77 h
- Tmax ([5]; both sexes, rat, given as LL-1, sciatic nerve block, n = 10, mean ± SEM, read-out: Tmax): 4.11 ± 0.39 h
- CL/F ([5]; Levobupivacaine alone (single drug), sciatic nerve block, mean ± SEM): 1.32 ± 0.08 L/h
- CL/F ([5]; given as LL-1, sciatic nerve block, n = 10, mean ± SEM): 0.78 ± 0.10 L/h
- Tmax ([5]; rat, Levo-Bupi in combination with QX-314 (35 mM/10 mM), sciatic nerve block, n = 10, read-out: Tmax): 4 h
- increase of concentration in sciatic nerve, LL-1 vs single drug ([6]; at the same time points): 1.5 to 24 times
- Tmax ([6]; male, rat, sciatic nerve, given as LL-1, sciatic nerve block, n = 5 per time point): 0.5 h
- Cmax [6, 13]: 430000 ± 48600 ng/g
- Vd/F [6, 13]: 1.23 ± 0.8 L
- half-life [6, 13]: 1.28 ± 0.74 h
- AUC0–t [6, 14]: 935.82 ± 74.35 µg·h/g
- AUC0–∞ [6, 14]: 935.88 ± 74.39 µg·h/g
- CL/F [6, 14]: 0.70 ± 0.05 L/h
SMILES: CCCCN1CCCC[C@H]1C(=O)Nc1c(C)cccc1C [Levobupivacaine, levobupivacaine]
- change of Tmax on combining with epinephrine [3]: doubled
- soak time required to block CAPs ([4]; n = 6, mean ± SEM): 14.17 ± 2.01 min
- CAPs amplitude (% of baseline) ([4]; within the first 5 min of soaking): 34%

SMILES: CC[N+](CC)(CC)CC(=O)Nc1c(C)cccc1C.[Br-] [QX-314]
- cellular uptake of QX-314 in presence of bupivacaine [7]: enhanced the cellular uptake

SMILES: CCCCN1CCCCC1C(=O)Nc1c(C)cccc1C (stereo not drawn) [bupivacaine]
- time at which Cmax was reached [8]: 0.5 h
